Results published in the NIST ThermoML archive (doi:10.1021/je060271a).

Conditions: 343.15 K, Liquid, Vibrating tube method

CCCCCCC(=O)OCC(COC(=O)CCCCCC)(COC(=O)CCCCCC)COC(=O)CCCCCC [pentaerythritol tetraheptanoate]
Conditions	mass density [kg/m3]
18415 kPa	953.8
18445 kPa	953.9
18482 kPa	953.8
18513 kPa	954
18540 kPa	953.8
18543 kPa	953.8
18564 kPa	954
18575 kPa	953.9
18587 kPa	953.9
18610 kPa	954
18613 kPa	954
18633 kPa	954
18645 kPa	953.9
18661 kPa	954.1
18683 kPa	953.9
18685 kPa	954.1
18708 kPa	954
18712 kPa	954
18737 kPa	953.9
18761 kPa	954.1
18790 kPa	954
18814 kPa	954
18842 kPa	954
18866 kPa	954.2
18891 kPa	954
18920 kPa	954.3
18944 kPa	954.2
18968 kPa	954.1
18992 kPa	954.2
19022 kPa	954.1
19041 kPa	954.1
19047 kPa	954.2
19065 kPa	954.3
19072 kPa	954.3
19094 kPa	954.3
19102 kPa	954.3
19119 kPa	954.4
19127 kPa	954.3
19144 kPa	954.3
19152 kPa	954.2
19168 kPa	954.4
19178 kPa	954.4
19198 kPa	954.4
19208 kPa	954.3
19224 kPa	954.4
19233 kPa	954.4
19249 kPa	954.4
19259 kPa	954.4
19275 kPa	954.4
19288 kPa	954.4
19314 kPa	954.4
19340 kPa	954.5
19360 kPa	954.5
19391 kPa	954.4
19421 kPa	954.6
19437 kPa	954.6
19446 kPa	954.5
19468 kPa	954.6
19478 kPa	954.4
19493 kPa	954.7
19503 kPa	954.7
19514 kPa	954.7
19534 kPa	954.6
19540 kPa	954.7
19561 kPa	954.5
19577 kPa	954.6
19587 kPa	954.6
19602 kPa	954.6
19618 kPa	954.6
19628 kPa	954.6
19644 kPa	954.5
19660 kPa	954.7
19670 kPa	954.7
19686 kPa	954.8
19697 kPa	954.8
19712 kPa	954.7
19729 kPa	954.7
19756 kPa	954.6
19783 kPa	954.7
19814 kPa	954.6
19842 kPa	954.8
19869 kPa	954.7
19902 kPa	954.8
19926 kPa	954.8
19958 kPa	954.9
19985 kPa	954.9
20013 kPa	954.8
20045 kPa	954.9
20073 kPa	955
20106 kPa	955
20134 kPa	954.9
20162 kPa	954.9
20189 kPa	955
20223 kPa	955
20251 kPa	955.1
20281 kPa	955
20292 kPa	955.2
20310 kPa	955.1
20321 kPa	955.1
20344 kPa	955.1
20350 kPa	955.1
20373 kPa	955.1
20384 kPa	955.1
20401 kPa	955
20412 kPa	955.1
20429 kPa	955.1
20463 kPa	955.2
20492 kPa	955.2
20504 kPa	955.2
20527 kPa	955.3
20555 kPa	955.2
20585 kPa	955.2
20620 kPa	955.3
20649 kPa	955.4
20679 kPa	955.3
20691 kPa	955.3
20708 kPa	955.3
20744 kPa	955.3
20773 kPa	955.5
20781 kPa	955.3
20803 kPa	955.4
20839 kPa	955.3
20869 kPa	955.5
20905 kPa	955.6
20935 kPa	955.4
20965 kPa	955.6
20996 kPa	955.5
21033 kPa	955.5
21064 kPa	955.6
21069 kPa	955.7
21096 kPa	955.6
21102 kPa	955.7
21133 kPa	955.6
21165 kPa	955.6
21196 kPa	955.7
21229 kPa	955.8
21267 kPa	955.7
21295 kPa	955.7
21320 kPa	955.9
21350 kPa	955.8
21376 kPa	955.8
21401 kPa	955.8
21432 kPa	955.8
21456 kPa	955.9
21483 kPa	955.8
21509 kPa	955.8
21540 kPa	955.9
21565 kPa	955.9
21591 kPa	955.9
21622 kPa	956
21647 kPa	956
21678 kPa	955.9
21704 kPa	955.9
21730 kPa	956.1
21760 kPa	956
21786 kPa	956.1
21813 kPa	956.2
21840 kPa	956.1
21872 kPa	956.1
21898 kPa	956.2
21930 kPa	956.1
21956 kPa	956
21983 kPa	956.1
22010 kPa	956.2
22042 kPa	956.2
22069 kPa	956.3
22096 kPa	956.1
22127 kPa	956.3
22129 kPa	956.2
22156 kPa	956.3
22161 kPa	956.2
22190 kPa	956.3
22195 kPa	956.4
22217 kPa	956.2
22244 kPa	956.3
22272 kPa	956.3
22300 kPa	956.3
22332 kPa	956.4
22360 kPa	956.5
22388 kPa	956.4
22421 kPa	956.4
22449 kPa	956.5
22478 kPa	956.4
22512 kPa	956.6
22540 kPa	956.6
22570 kPa	956.6
22599 kPa	956.7
22633 kPa	956.5
22661 kPa	956.6
22690 kPa	956.6
22704 kPa	956.7
22724 kPa	956.6
22740 kPa	956.7
22753 kPa	956.8
22782 kPa	956.6
22817 kPa	956.7
22846 kPa	956.8
22874 kPa	956.6
22910 kPa	956.7
22939 kPa	956.9
22970 kPa	956.7
23000 kPa	956.8
23030 kPa	956.9
23066 kPa	956.9
23095 kPa	956.9
23125 kPa	956.9
23162 kPa	957
23191 kPa	957
23227 kPa	957
23257 kPa	957.1
23288 kPa	957
23318 kPa	957
23355 kPa	957
23387 kPa	957.1
23417 kPa	957.1
23454 kPa	957.1
23484 kPa	957.2
23516 kPa	957.2
23552 kPa	957.1
23584 kPa	957.2
23615 kPa	957.2
23646 kPa	957.2
23681 kPa	957.3
